# Values of other authors in US7378261B2, “Method for preparing para-hydroxystyrene by biocatalytic decarboxylation of para-hydroxycinnamic acid in a biphasic reaction medium” (E.I. du Pont de Nemours and Company, priority 2003, dated 2008).
# Details: logarithm of solvent's partition coefficient in standard octanol:water mixture
row,Structure (SMILES),log P
1,CCCCCCCCCC(C)=O [2-undecanone],4.21
2,CCCCCC(C)O (centres unmarked) [2-heptanol],2.24
3,CCCCCCCC(C)O (centres unmarked) [2-nonanol],3.22

# Results, then the compound that gave them:
row,log P,Structure (SMILES)
1,3.2,CCCCCCCC(=O)CC [3-decanone]
2,3.71,CCCCCCC(O)CCC (centres unmarked) [4-decanol]
3,3.9,CCCCCC [hexane]
4,3.2,CCCCCCC(=O)CCC [4-decanone]
5,3.71,CCCCCCCCC(C)O (centres unmarked) [2-decanol]
